The subject of assay [1] is HT1080 cells. Put plainly: FBS-directed matrigel invasion of HT1080 cells (xCELLigence RTCA). It is filed as cell-based, human. Conditions: 10 nM peptide, growth medium, 20 hrs. The source says:
FIG. 5 Peptides RI-1, RI-2, RI-3, RI-4 and RI-5 reduced by 33%, 35%, 81%, 52% and 11%, respectively, the extent of FBS-directed matrigel invasion of HT1080 cells (A), as assessed in real time using the xCELLigence RTCA technology. The inhibitory effect of RI-3 is dose-dependent (B) (Example 5).
Cell migration is a prerequisite for cancer invasion. Therefore, we investigated whether retro-inverso peptides prevent matrigel invasion of HT1080 cells using the xCELLigence RTCA technology. Cells were seeded on polymerized matrigel and lower chambers were filled with DMEM (CTRL), growth medium (None) or growth medium with 10 nM the indicated peptides (A), or with increasing concentrations of RI-3 (B). Matrigel invasion was monitored in real time for 20 (A) or 18 (B) hrs at 37° C., 5% CO2 and the impedance values were automatically monitored as changes in cell index. Data represent means±SD from quadruplicate experiments, each representative of 2 replicates. HT1080 cells were able to cross matrigel in the presence of 10% FBS. All retro-inverso peptides caused a reduction of FBS-directed cell migration although to different extent.

Assay [2] relates to HT1080 cells. Put plainly: FBS-directed migration of HT1080 cells in Boyden chambers. It is filed as cell-based, human. The note with it: 10 nM peptide, 10% FBS, 4 hrs. The method, then: FIG. 4 Retro-inverso peptides inhibit FBS-directed migration of HT1080 cells in a dose dependent manner (Example 4).
To assess whether retro-inverso peptides exert some effect on directional cell migration, HT1080 cells were allowed to migrate for 4 hrs in Boyden chambers toward serum-free medium (CTRL), 10% FBS (None) or 10% FBS mixed with peptides, each tested at 10 nM concentration. For quantitative analysis, the basal values assessed in the absence of FBS (CTRL) was taken as 100% and all values were reported relative to that. Data are the means±SD of two independent experiments, performed in triplicate. Statistical significance calculated against None with *p<0.01, **p<0.001 (A). All retro-inverso peptides caused a reduction of FBS-directed cell migration although to different extent. Peptides RI-1, RI-2, RI-3, RI-4 and RI-5 reduced by 49%, 46%, 65%, 9% and 6%, respectively, the extent of FBS-directed cell migration. Similar results were obtained when, HT1080 cell migration was monitored in real time for 18 hrs at 37° C., 5% CO2 by the xCELLigence system. Data represent mean±SD from a quadruplicate experiment representative of 2 replicates (B). Then, HT1080 cells were allowed to migrate in Boyden chambers toward 10% FBS plus increasing concentrations of RI-3, and data were expressed as a percentage of cells migrated toward FBS alone (100%) Inhibitory effect of RI-3 is dose-dependent, it starts in the high fM range, it seems to level off in the nM range and reaches an overall 50% reduction at 1×10^−13M (C).

A further assay concerns sarcoma cell. The note with it: mouse model of lung colonization; cited from earlier work.
Assay [3] concerns human fibrosarcoma HT1080 cells. Put plainly: Migration of HT1080 cells toward the peptides as chemoattractant (xCELLigence RTCA). It is filed as cell-based. The note with it: 10 nM peptide as chemoattractant, 18 hrs, cell index. From the text:
Cell index due to the adhesion of migrating cells to microelectrodes are reported in (A); analysis of slopes representing the change rate of cell index generated in the time range 0-12 hr are reported in (B).
We assessed whether new generated retro-inverso peptides elicit themselves cell migration of human fibrosarcoma HT1080 cells. […] The results are depicted in FIG. 2. Data represent mean±SD from a quadruplicate experiment representative of 2 replicates (A).

“3-phenylpropionyl-D-Arg-Aib-D-Arg-NH2 [RI-5]”: the “reduction of the extent of FBS-directed cell invasion (matrigel)” value (shortened to “reduction of the extent … (matrigel)”) in the assay on HT1080 cells [1] is on record as 11%. In addition, the “reduction of the extent of FBS-directed cell migration” value in the assay with HT1080 cells [2] is 6%. Take “Ac-(D)-Tyr-(D)-Arg-(D)-Glu-(D)-Arg-NH2 [RI-1]”: the “reduction of the extent … (matrigel)” value in the assay on HT1080 cells [1] was found to be 33%. Further, the “reduction of the extent of FBS-directed cell migration” value in the assay on HT1080 cells [2] came out at 49%. For “Ac-(D)-Tyr-(D)-Arg-(D)-Ser-(D)-Arg-NH2 [RI-2]”, in that order: 35% and 46%.

“Ac-L-Arg-Aib-L-Arg-D-Cα(Me)Phe-NH2 [UPARANT]”: the “inhibition of sarcoma cell invasion” value with sarcoma cell is “does not inhibit sarcoma cell invasion”.

On to “N-formyl-methionyl-leucyl-phenylalanine peptide [fMLF]”, for which, in assay [3], the “cell migration triggered by the peptide” value is on record as “elicited a considerable cell migration”.

For the substance Phenylacetyl-D-Arg-Aib-D-Arg-NH2 [RI-4], in the assay with HT1080 cells [1], the “reduction of the extent … (matrigel)” value worked out at 52%. Also, in the assay on HT1080 cells [2], the “reduction of the extent of FBS-directed cell migration” value is listed as 9%.

The values are drawn from patent US10836792B2, “Retro-inverso peptide inhibitors of cell migration, extracellular matrix and endothelial invasion by tumor cells” (ISTITUTO NAZIONALE TUMORI IRCCS “FONDAZIONE G. PASCALE”, priority 2016, dated 2020).
